Literature values as cited in patent US20190077874A1, “METHODS AND COMPOSITIONS FOR THE TREATMENT OF TUBEROUS SCLEROSIS” (National Tuberous Sclerosis Association, Inc., priority 2017, published 2019).

What was measured:
[1] = system: refractory partial-onset seizures; settings: patients with refractory partial-onset seizures
TSC patients = settings: previous antiepileptic drugs
[2] = system: infantile spasms in the setting of TSC
[3] = system: TSC patients with medically refractory epilepsy and SEGAs; settings: case studies of TSC patients
[4] = most commonly hypertension, immune suppression and infection, electrolyte imbalance etc.
TSC mouse model = settings: Zhang et al.
IL-1β = settings: TSC mouse model
CXCL10 = settings: TSC mouse model

C=CC(N)CCC(=O)O (stereo not drawn) [VGB, vigabatrin]
patients in whom treatment is ineffectual [1]: more than 75%
patients in whom the antiepileptic drug failed (TSC patients): 66%
efficacy in treating infantile spasms [2]: particularly effective

CO[C@H]1C[C@@H]2CC[C@@H](C)[C@@](O)(O2)C(=O)C(=O)N2CCCC[C@H]2C(=O)O[C@H]([C@H](C)C[C@@H]2CC[C@@H](OCCO)[C@H](OC)C2)CC(=O)[C@H](C)/C=C(\C)[C@@H](O)[C@@H](OC)C(=O)[C@H](C)C[C@H](C)/C=C/C=C/C=C/1C [everolimus]
SEGA size [3]: dramatic reduction
seizure frequency [3]: dramatic reduction

CC[C@@H](C(N)=O)N1CCCC1=O [levetiracetam]
patients in whom the antiepileptic drug failed (TSC patients): 67%

CC1(C)O[C@@H]2[C@@H](CO[C@@]3(COS(N)(=O)=O)OC(C)(C)O[C@@H]23)O1 [topiramate]
patients in whom the antiepileptic drug failed (TSC patients): 58%

adrenocorticotropic hormone (SYSMEHFRWGKPVGKKRRPVKVYPNGAEDESAEAFPLEF; Corticotropin; UniProt P01189 138-176, looked up) [ACTH, mainstay therapy for the treatment of seizures in TSC patients]
treated patients with adverse effects [4]: up to 85%

epicatechin-3-gallate
seizures (TSC mouse model): reduced seizures
survival (TSC mouse model): improved survival
increased production of IL-1β (IL-1β): reverse the increased production
increased production of CXCL10 (CXCL10): reverse the increased production
